Test results as given in patent US10194662B2, “Carbamate compound and use thereof” (SUMITOMO CHEMICAL COMPANY, LIMITED, priority 2015, dated 2019).

Experiments:
[1] = system: wheat rust fungus (Puccinia recondita); assay: Test Example 2: wheat rust, foliar spray preventive test; assay type: in vivo; settings: wheat (Shirogane), 500 ppm foliar spray, inoculated 5 days after spraying, assessed after 1 + 8 days
[2] = system: rice blast fungus (Magnaporthe grisea); assay type: in vivo; settings: rice (Nipponbare), 500 ppm foliar spray, contact with infected seedling, 6 days

| Compound | area of the lesion on treated plant relative to untreated plant [1] [%] | lesion areas on treated plant relative to non-treated plant [2] [%] |
| --- | --- | --- |
| COC(=O)Nc1ccccc1COc1ccc(-c2ncccn2)cc1 [methyl N-(2-{[4-(pyrimidine-2-yl)phenoxy)methyl}phenyl)carbamate] | ≥ 70 | – |
| COC(=O)Nc1cccc(C)c1COc1ccc(-c2nccc(C)n2)cc1C [Compound 2] | – | ≤ 30 |
